Results on one compound are retold here after patent US10301308B2, “Azetidine derivatives for tau imaging” (Eli Lilly and Company, priority 2015, dated 2019).

The test system of series [1] is normal human brain tissue. Kind of series: Autoradiography on normal versus AD human brain slices, less stringent or alcohol free washes. It counts as binding. From the text:
In order to show the absence of non-tau binding, autoradiography scans are obtained from 3-(3-[18F]-fluoroazetidin-1-yl)-8-methylbenzo[4,5]imidazo[1,2-a]pyridine on normal human brain tissue. The experimental procedure is the same as provided in Example 5 except that only 20 uCi of 18F-ligand is applied to the tissue slices and the washing conditions are less stringent. […] The autoradiography is further carried out with no ethanol in the washing solutions.

A short description of series [2]: Clinical PET kinetic profile: brain uptake, washout, metabolism. It is filed as in vivo, human. Here is the method:
Clinical evaluation of 3-(3-[18F]-Fluoroazetidin-1-yl)-8-methylbenzo[4,5]imidazo[1,2-a]pyridine (Compound 8) as a PET radioligand for imaging tau protein deposition in patients with AD or other neurodegenerative disorders is conducted in healthy volunteers. AD patients, or Chronic Traumatic Encephalopathy (CTE) subjects, by completion of one or more PET scans with Compound 8. Dynamic PET imaging is acquired on a Siemens ECAT EXACT HR+ over 150 minutes following Compound 8 or [18F]AV-1451 injection (0-60 and 90-150 minute imaging segments). Compound 8 or [18F]AV-1451 scans are acquired similarly in two imaging sessions. A brain MRI is also obtained. PET and MRI images are aligned and normalized, and ATLAS-based volumes of interest (VOI) are applied to the dynamic PET series. Compound 8 or [18F]AV-1451 are evaluated in terms of kinetic profile as well as target region to cerebellum standardized uptake value ratio (SUVr between 100-120 min) between healthy volunteers and AD or CTE subjects.

For series [3], the system named is native tau aggregates vs native β-amyloid aggregates in human brain sections. Nature of the series: Autoradiography selectivity towards tau versus β amyloid in AD human brain tissue. It counts as binding. From the text: Based on the anti-tau and anti-amyloid immunostaining results of brain sections, three groups of human brain sections are selected for autoradiography experiments to determine the native tau-binding selectivity of 3-(3-[18F]-fluoroazetidin-1-yl)-8-methylbenzo[4,5]imidazo[1,2-a]pyridine. Group A are tau-rich AD brain slices (labeled as Tau+Aβ+), Group B are tau-poor AD brain slices (marked as Tau-Aβ+), and Group C are Tau-Aβ− normal brain slices. […] The human AD brain sections in Group B are #33562, #32656, #33998, #35682, and #33563. The normal human brain sections in group C are #29092 and #32566. Tissue slices from the same donors are used to calculate selectivity for all three compounds for testing according to Assay Example 5. Autoradiography is performed for each of these three groups of brains on adjacent 10 μm sections with the amyloid tracer [18F]W372 to quantify the β-amyloid burden. [18F]W372 is a selective amyloid binding tracer discovered by Siemens and evaluated under IND 105173. Sections are covered with 0.5 ml of 3-(3-[18F]-fluoroazetidin-1-yl)-8-methylbenzo[4,5]imidazo[1,2-a]pyridine (in 2.5:2.5:95 DMSO:EtOH:1×PBS, about 20 μCi/slide) and incubated for 1.5 hrs. Then successive washing cycles (1 min PBS, 2 min 30% EtOH/PBS, 2 min 70% EtOH/PBS, 1 min PBS) are employed to remove any unbound tracer. The sections are air dried, placed on a phosphorimaging plate (Fuji IP plate), and exposed overnight. The IP plate is read using a GE Healthcare Life Sciences Typhoon FLA 7000 Phosphorimager. The signal intensity of the grey matter is measured using Fujifilm Multi Gauge software. After subtracting the background signal (signal in the cortex region of Group C), the signal of individual sections of Group A and B are normalized with corresponding signal from autoradiography of the respective adjacent sections with [18F]W372. The calculations are based on Group B brain sections #32656 and #33998, which have undetectable tau pathology by immunohistochemistry. The normalized signal for 3-(3-[18F]-fluoroazetidin-1-yl)-8-methylbenzo[4,5]imidazo[1,2-a]pyridine in Group B brain sections is the relative signal level of 3-(3-[18F]-fluoroazetidin-1-yl)-8-methylbenzo[4,5]imidazo[1,2-a]pyridine to [F-18]W372 resulting from binding to native β-amyloid aggregates. The binding level of 3-(3-[18F]-fluoroazetidin-1-yl)-8-methylbenzo[4,5]imidazo[1,2-a]pyridine to native tau-aggregates in Group A sections is estimated by subtracting the amount of the total signal attributable to binding to 3-amyloid (calculated by multiplying the total signal from [18F]W372 binding to β-amyloid in the adjacent section by the relative signal of 3-(3-[18F]-fluoroazetidin-1-yl)-8-methylbenzo[4,5]imidazo[1,2-a]pyridine to [18F]W372 determined from the Group B sections). The resulting difference is then divided by the signal attributable to binding to β-amyloid to estimate the selectivity of 3-(3-[18F]-fluoroazetidin-1-yl)-8-methylbenzo[4,5]imidazo[1,2-a]pyridine. […] The selectivity of 3-(3-[18F]-fluoroazetidin-1-yl)-8-methylbenzo[4,5]imidazo[1,2-a]pyridine binding to native tau aggregates vs. binding native β-amyloid aggregates is reflected by the ratio of Group A (Tau+Aβ+) signal to the signal of the brain sections #32656 and #33998.

For the compound `Cc1ccc2nc3cc(N4CC([18F])C4)ccn3c2c1` [Compound 8, 3-(3-[18F]-fluoroazetidin-1-yl)-8-methylbenzo[4,5]imidazo[1,2-a]pyridine], the “blocking of signal in AD brain tissue” value in series [1] (AD30121, frontal cortex) is “can be blocked by non-radiolabelled compound or with the known tau PET tracer T807”. Further, in series [1] (no ethanol in the washing solutions), the “autoradiography signal in normal cortical or white matter tissue compared to [18F]T807” value is recorded as “much lower autoradiography signal”. Moreover, in series [1] (washes PBS, 10% ethanol/PBS, 30% ethanol/PBS, PBS, vs AD brain tissue), the “radioactivity signal in normal tissue” value is “considerably lower than in AD brain tissue”. In addition, the intact parent remaining in series [2] (60 min post injection, n=7) is listed as 5±3%. Moreover, the “max SUV relative to that of [18F]AV-1451” value in series [2] (healthy volunteers and AD subjects) is recorded as about 50 % higher. In addition, the peak brain uptake in series [2] (human subjects, dynamic PET) is on record as about 8 SUV. In series [3] (5 Tau+Aβ+ and 2 Tau-Aβ+ brain specimens), the “selectivity ratio for Tau:Aβ” value is “approximately 26.6±4.5”. For the same compound, in series [3] (Group A (Tau+Aβ+) sections), the “autoradiography signal on grey matter (cortex region)” value is on record as “Strong signal”. For the same compound, the “autoradiography signal on cortex regions” value in series [3] (Group B (Tau-Aβ+) sections) is “weak or no signal”. Besides, the autoradiography signal result in series [3] (Group C (Tau-Aβ−) normal brain sections) was “No autoradiography signal”. Moreover, the “grey matter to white matter (GM/WM) signal ratio” value in series [3] (autoradiography, Tau+Aβ+ brain specimens) is on record as “approximately 17.3±1.7”. For the same compound, in series [3] (grey matter region of human AD brains), the “selectivity of binding to native tau aggregates vs native β-amyloid aggregates” value is “approximately 27 fold”. Further, the “autoradiography signal on normal brain sections, grey vs white matter” value in series [3] (normal brain sections) was “weak and even”.
